10 compounds from US20240294551A1 (AMGEN INC., priority 2022, published 2024) can be followed below.

The structures appear in SMILES notation. Read-outs that look alike come from different tables or passages of the source.

In one assay the test system is AsPC-1 cells. Nature of the assay: AsPC-1 CTG Assay (CellTiter-Glo cell viability). It counts as cell-based, human. As to conditions: AsPC-1, 72 h, first value of the cell, read-out: G12D/C/V Cell Proliferation CTG (72 h) AsPC-1. An outline of the steps:
(§1)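 Human pancreatic AsPC-1 or colon SW620 cells in RPMI 1640 with 10% FBS, seeded overnight, then exposed to serially diluted compound for 72 h at 37 °C. CellTiter-Glo luminescence normalized to DMSO control; IC50 from a 4-parameter logistic model.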

Another assay relates to SW620 cells. Description: SW620 CTG Assay (CellTiter-Glo cell viability). It counts as cell-based, human. As to conditions: SW620, 72 h, third value of the cell, read-out: G12D/C/V Cell Proliferation CTG (72 h) SW620. Put shortly: as §1
The next assay has as its system MIA PaCa-2 cells. Description: MIA PaCa-2 CTG Assay (CellTiter-Glo cell viability). It is filed as cell-based, human. As to conditions: Mia PaCa-2, 72 h, second value of the cell, read-out: G12D/C/V Cell Proliferation CTG (72 h) Mia PaCa-2. Put shortly:
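Human pancreatic carcinoma cells in RPMI 1640 with 10% FBS, seeded at 1.67E+04 cells/mL and left overnight, were treated with serially diluted compound for 72 h at 37° C, 5% CO2. Viability was read by CellTiter-Glo luminescence normalized to DMSO; IC50 came from a 4-parameter logistic fit.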
In general terms: Cellular ATP, detected with luciferase, serves as a proxy for viable cell number.

In assay [1] the target is GDP-bound KRAS protein (aa 1-169), containing both G12D and C118A amino acid substitutions (Homo sapiens (Human), UniProt P01116, C118A/G12D). Nature of the assay: KRAS G12D Coupled Nucleotide Exchange Assay. It counts as biochemical. Particulars: read-out: KRAS G12D Coupled Exchange IC50.
Sequence of GDP-bound KRAS protein (aa 1-169), containing both G12D and C118A amino acid substitutions (P01116 other isoform, or with tags, fused parts or gaps G12D/C118A): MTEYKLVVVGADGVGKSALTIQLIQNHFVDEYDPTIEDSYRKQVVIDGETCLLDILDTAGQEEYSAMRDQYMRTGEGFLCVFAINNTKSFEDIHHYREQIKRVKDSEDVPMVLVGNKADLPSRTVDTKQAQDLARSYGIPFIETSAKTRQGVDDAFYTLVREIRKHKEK
Assay [2] concerns the target His-tagged KRAS G12D protein (Homo sapiens (Human), UniProt P01116, G12D). Nature of the assay: KRAS G12D TR-FRET Assay. It is filed as binding. As to conditions: read-out: KRAS G12D Binding IC50. An outline of the steps:
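His-tagged KRAS G12D (diluted to 20 nM in pH 7.4 HEPES buffer with 10 mM MgCl2 and 10 μM GDP) was preincubated with titrated compound for 30 min at room temperature. Biotinylated KRPep-2d peptide (diluted to 20 nM) was then added for 1 h, and displacement was monitored by TR-FRET.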
For orientation: TR-FRET usually uses a lanthanide donor and a delayed reading to cut background.

Assay [3] deals with Phosphorylation of ERK1/2 in AsPC-1 cells. Description: Phospho-ERK1/2 MSD Assay. It is filed as cell-based, human. Particulars: read-out: 2 h p-ERK (AsPC-1 cells), IC50. Put shortly:
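Read-out: MSD electrochemiluminescent detection of phosphorylated ERK1/2 in whole-cell lysates, fitted to a 4-parameter logistic curve for IC50. Prior to lysis, AsPC-1 cells (25,000 per well) received a 2 h compound dose-response at 37 °C.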

Sequence of His-tagged KRAS G12D protein (P01116 other isoform, or with tags, fused parts or gaps G12D): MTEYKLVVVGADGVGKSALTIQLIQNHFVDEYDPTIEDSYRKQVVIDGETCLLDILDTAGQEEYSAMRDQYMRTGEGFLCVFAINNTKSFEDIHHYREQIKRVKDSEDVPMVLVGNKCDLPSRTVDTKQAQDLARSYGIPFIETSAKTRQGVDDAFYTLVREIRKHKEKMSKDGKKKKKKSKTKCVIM

In the case of `Cc1cc2[nH]ncc2c2c1CCCCOC[C@@H]1CCCN(C1)c1nc(OC[C@@]34CCCN3C[C@H](F)C4)nc3c(F)c-2ncc13` [Example 129, (17R)-30-Fluoro-24-(((2R,7aS)-2-fluorotetrahydro-1H-pyrrolo[1,2-a]pyrrol-7a(5H)-yl)methoxy)-9-methyl-15-oxa-5,6,21,23,25,29-hexaazahexacyclo[24.3.1.1˜17,21˜.0˜2,10˜.0˜3,7˜.0˜22,27˜]hentriaconta-1(30),2,4,7,9,22,24,26,28-nonaene bis(2,2,2-trifluoroacetate)], the IC50 amounted to 170 nM in the assay on AsPC-1 cells (Homo sapiens, ASPC1, 72 h); 67.4 nM in the assay on SW620 cells (Homo sapiens, SW-620); 90 nM in the assay on MIA PaCa-2 cells (Homo sapiens); 2 nM in assay [1]; 4 nM in assay [2]; 20 nM in assay [3] (Homo sapiens, ASPC1, 2 h).
Regarding `Fc1c2ncc3c(nc(OC[C@@]45CCCN4C[C@H](F)C5)nc13)N1CCCCC(COCCCCc3c(Cl)cc4[nH]ncc4c3-2)C1` (stereo partly drawn) [Example 141], the IC50 in the assay on AsPC-1 cells (Homo sapiens, ASPC1, 72 h) amounted to 120 nM; in the assay on SW620 cells (Homo sapiens, SW-620), 20.2 nM; in the assay with MIA PaCa-2 cells (Homo sapiens) it was 20 nM; in assay [1] it was 1 nM; in assay [2], 2 nM; in assay [3] (Homo sapiens, ASPC1, 2 h) it was 6 nM.
As for `Fc1c2ncc3c(nc(OC[C@@]45CCCN4C[C@H](F)C5)nc13)N1CCC[C@@](F)(COCCCCc3c(Cl)cc4[nH]ncc4c3-2)C1` [Example 151, (17S)-9-chloro-17,30-difluoro-24-(((2R,7aS)-2-fluorotetrahydro-1H-pyrrolo[1,2-a]pyrrol-7a(5H)-yl)methoxy)-15-oxa-5,6,21,23,25,29-hexaazahexacyclo[24.3.1.1~17,21~.0~2,10~.0~3,7~.0~22,27~]hentriaconta-1(30),2,4,7,9,22,24,26,28-nonaene], the IC50 in the assay with AsPC-1 cells (Homo sapiens, ASPC1, 72 h) came out at 200 nM; in the assay with SW620 cells (Homo sapiens, SW-620), 38.7 nM; in the assay on MIA PaCa-2 cells (Homo sapiens), 70 nM; in assay [1], 2 nM; in assay [2], 4 nM; in assay [3] (Homo sapiens, ASPC1, 2 h), 13 nM.
As to `O=C1OCCCc2c(Cl)cc3[nH]ncc3c2-c2ncc3c(nc(OC[C@@]45CCCN4C[C@H](F)C5)nc3c2F)N2CC[C@H]3CCN1[C@H]3C2` [Example 177, (28S,32R)-18-chloro-33-fluoro-4-(((2R,7aS)-2-fluorotetrahydro-1H-pyrrolo[1,2-a]pyrrol-7a(5H)-yl)methoxy)-23-oxa-1,3,5,9,14,15,25-heptaazaheptacyclo[23.5.2.1~6,10~.0~2,7~.0~11,19~.0~12,16~.0~28,32~]tritriaconta-2,4,6,8,10(33),11,13,16,18-nonaen-24-one], the IC50 in the assay with AsPC-1 cells (Homo sapiens, ASPC1, 72 h) stood at 178 nM; with SW620 cells (Homo sapiens, SW-620), 39 nM; in the assay with MIA PaCa-2 cells (Homo sapiens), 100 nM; in assay [1], 3 nM; in assay [2], 3 nM; in assay [3] (Homo sapiens, ASPC1, 2 h), 16.3 nM.
Take `Cc1cc2[nH]ncc2c2c1CCCOC(=O)O[C@]1(C)COCCN(C1)c1nc(OC[C@@H]3CCCN3C)nc3c(F)c-2ncc13` [Example 183, (26S)-32-fluoro-18,26-dimethyl-4-(((2S)-1-methyl-2-pyrrolidinyl)methoxy)-23,25,28-trioxa-1,3,5,9,14,15-hexaazahexacyclo[24.4.1.1~6,10~.0~2,7~.0~11,19~.0~12,16~]dotriaconta-2,4,6,8,10(32),11,13,16,18-nonaen-24-one]: the IC50 came out at 164 nM in the assay with AsPC-1 cells (Homo sapiens, ASPC1, 72 h); 44 nM in the assay on SW620 cells (Homo sapiens, SW-620); 50 nM in the assay on MIA PaCa-2 cells (Homo sapiens); 4 nM in assay [1]; 8 nM in assay [2]; 49.3 nM in assay [3] (Homo sapiens, ASPC1, 2 h).
With `O=C1OCCCc2c(Cl)cc3[nH]ncc3c2-c2ncc3c(nc(OCC45CCCN4CCC5)nc3c2F)N2CCOC[C@H](C2)O1` [Example 198, (26S)-18-chloro-32-fluoro-4-(tetrahydro-1H-pyrrolo[1,2-a]pyrrol-7a(5H)-ylmethoxy)-23,25,28-trioxa-1,3,5,9,14,15-hexaazahexacyclo[24.4.1.1~6,10~.0~2,7~.0~11,19~.0~12,16~]dotriaconta-2,4,6,8,10(32),11,13,16,18-nonaen-24-one], the IC50 was 108 nM with AsPC-1 cells (Homo sapiens, ASPC1, 72 h); 14 nM in the assay with SW620 cells (Homo sapiens, SW-620); 16 nM in the assay on MIA PaCa-2 cells (Homo sapiens); 1 nM in assay [1]; 2 nM in assay [2]; 8.1 nM in assay [3] (Homo sapiens, ASPC1, 2 h).
Regarding `Fc1cc2[nH]ncc2c2c1CCCCOC[C@H]1CCCCN(C1)c1nc(OC[C@@]34CCCN3C[C@H](F)C4)nc3c(F)c-2ncc13` [Example 240, (26S)-18,32-difluoro-4-(((2R,7aS)-2-fluorotetrahydro-1H-pyrrolo[1,2-a]pyrrol-7a(5H)-yl)methoxy)-24-oxa-1,3,5,9,14,15-hexaazahexacyclo[24.4.1.1~6, 10~.0~2,7~.0~11,19~.0~12,16~]dotriaconta-2,4,6(32),7,9,11,13,16,18-nonaene], the IC50 came out at 230 nM in the assay on AsPC-1 cells (Homo sapiens, ASPC1, 72 h); 80 nM in the assay on SW620 cells (Homo sapiens, SW-620); 140 nM in the assay with MIA PaCa-2 cells (Homo sapiens); 2 nM in assay [1]; 3 nM in assay [2]; 21.9 nM in assay [3] (Homo sapiens, ASPC1, 2 h).
As to `Fc1c2ncc3c(nc(OC[C@@]45CCCN4C[C@H](F)C5)nc13)N1CCC[C@]3(C1)C[C@H](C3)OCCCCc1c(Cl)cc3[nH]ncc3c1-2` [Example 260, (1S,3R)-10-Chloro-32-fluoro-24-(((2R,7aS)-2-fluorotetrahydro-1H-pyrrolo[1,2-a]pyrrol-7a(5H)-yl)methoxy)-4-oxa-13,14,19,23,25,27-hexaazaheptacyclo[25.3.1.1˜1,3˜.1˜18,22˜.0˜9,17˜.0˜12,16˜.0˜21,26˜]tritriaconta-9,11,14,16,18(32),19,21,23,25-nonaene bis(2,2,2-trifluoroacetate)], the IC50 came to 40 nM with AsPC-1 cells; 8 nM in the assay on SW620 cells; 26 nM in the assay with MIA PaCa-2 cells; 2 nM in assay [1]; 4 nM in assay [2]; 3.2 nM in assay [3] (2 h).
For `O=C1OCCCc2c(Cl)cc3[nH]ncc3c2-c2ncc3c(nc(OC[C@@]45CCCN4C[C@H](F)C5)nc3c2F)N2CCOC[C@](CF)(C2)O1` [Example 311, (26S)-18-chloro-32-fluoro-26-(fluoromethyl)-4-(((2R,7aS)-2-fluorotetrahydro-1H-pyrrolo[1,2-a]pyrrol-7a(5H)-yl)methoxy)-23,25,28-trioxa-1,3,5,9,14,15-hexaazahexacyclo[24.4.1.1~6,10~.0~2,7~.0~11,19~.0~12,16~]dotriaconta-2,4,6(32),7,9,11,13,16,18-nonaen-24-one], the IC50 with AsPC-1 cells (Homo sapiens, ASPC1, 72 h) was determined as 36 nM; in the assay on SW620 cells (Homo sapiens, SW-620), 6 nM; in the assay with MIA PaCa-2 cells (Homo sapiens), 7 nM; in assay [1], 3 nM; in assay [2] it was 5 nM; in assay [3] (Homo sapiens, ASPC1, 2 h), 4.2 nM.
For the compound `O=C1OCCc2c(Cl)cc3[nH]ncc3c2-c2ncc3c(nc(OC[C@@]45CCCN4C[C@H](F)C5)nc3c2F)N2CCOC[C@]3(C2)C[C@H](C3)O1` [Example 316, (1R,3R)-10-chloro-33-fluoro-24-(((2R,7aS)-2-fluorotetrahydro-1H-pyrrolo[1,2-a]pyrrol-7a(5H)-yl)methoxy)-4,6,30-trioxa-13,14,19,23,25,27-hexaazaheptacyclo[25.4.1.1~1,3~.1~18,22~.0~9,17~.0~12,16~.0~21,26~]tetratriaconta-9,11,14,16,18(33),19,21,23,25-nonaen-5-one], the IC50 in the assay on AsPC-1 cells (Homo sapiens, ASPC1, 72 h) stood at 54 nM; in the assay with SW620 cells (Homo sapiens, SW-620), 10 nM; with MIA PaCa-2 cells (Homo sapiens) it was 13 nM; in assay [1], 3 nM; in assay [2], 4 nM; in assay [3] (Homo sapiens, ASPC1, 2 h), 6.7 nM.
